Here are results for 13 molecules from patent publication US20230096766A1, “AMINO ACID HAVING FUNCTIONAL GROUP CAPABLE OF INTERMOLECULAR HYDROGEN BONDING, PEPTIDE COMPOUND CONTAINING SAME AND METHOD FOR PRODUCTION THEREOF” (Chugai Seiyaku Kabushiki Kaisha, priority 2018, published 2023).

*1 amine or outer side, *2 acyl side, *3 side chain or, on linkers, in order; H or OH if unused. Where a SMILES comes first, the peptide text is derived from it. Bridges are numbered along the chain shown (N, C = ends). [ ]: non-standard residue; d: D form. The star is where a group is joined. ξ: configuration not given here. Phe(3-OMe,4-CONHMs) = COc1cc(C[C@H](N)C(=O)O)ccc1C(=O)NS(C)(=O)=O; Phe(3-OMe,4-CONHMe) = CNC(=O)c1ccc(C[C@H](N)C(=O)O)cc1OC; X5 = O=C([C@H](CCC[C@@H]1CC(F)(F)CN1)N[*:1])[*:2]; CH2(1,2,4-oxadiazolon-3-yl) = O=c1[nH]c(C*)no1; NMePhe(3-Cl) = CN[C@@H](Cc1cccc(Cl)c1)C(=O)O; Pro(4,4-F2)ψ(CH2) = FC1(F)CN[C@H](C*)C1; NMeF = CN[C@@H](Cc1ccccc1)C(=O)O; NMeGABA = CN(CCCC(=O)[*:2])[*:1]; NMeI = CC[C@H](C)[C@H](NC)C(=O)O; CH2CH(OH)CF3 = OC(C*)C(F)(F)F; NMeL = CN[C@@H](CC(C)C)C(=O)O; Butyl(3R-OH) = C[C@@H](O)CC*; Propyl(2R-OH) = C[C@@H](O)C*; NMeV = CN[C@H](C(=O)O)C(C)C; ξIle = CC[C@H](C)C(N)C(=O)O; NMeAbu = CC[C@H](NC)C(=O)O; NMeA = CN[C@@H](C)C(=O)O; Piperidide = C1CCN(*)CC1; NBuGly = CCCCNCC(=O)O; ξS = NC(CO)C(=O)O; Sar = CNCC(=O)O; tBu = CC(C)(C)* A value given as a limit tells only on which side of the number the result lay.

The first data set is described as follows: Membrane permeability test of cyclic peptides (Caco-2, modified/improved method of WO 2018/124162). As to conditions: human, Caco-2, Caco-2 (cm/sec), Table 36; Papp; sequences having Papp ≥ 1.0 × 10^−6 at ARC = 3.
For `CC[C@H](C)[C@@H]1NC(=O)[C@H](Cc2ccccc2)N(C)C(=O)CN(C)C(=O)C[C@@H](C(=O)N2CCCCC2)NC(=O)[C@H](C(C)C)N(C)C(=O)[C@H](COC(C)(C)C)NC(=O)[C@H](CC(C)C)N(C)C(=O)[C@H](Cc2ccccc2)N(C)C(=O)CN(C)C(=O)[C@H]([C@@H](C)O)NC(=O)[C@H](Cc2ccccc2)N(C)C1=O` [pd205] ([Sar][NMeF]I[NMeF]T[Sar][NMeF][NMeL]S(tBu)[NMeV]D-Piperidide; lactam N-11), the Papp (commonly the rate of passage across a membrane or cell layer, normalised by area and donor concentration) is 1.8 ×10⁻⁶ cm/s.

Still in this data set, the particulars now being: human, Caco-2, Caco-2 (cm/sec), membrane permeability of cyclic peptides, Caco-2.
In turn, `CC[C@H](C)[C@H]1C(=O)N[C@@H]([C@@H](C)O)C(=O)N(C)CC(=O)N(C)[C@@H](CC)C(=O)N[C@H](C(=O)N2CCCCC2)CC(=O)N(C)[C@@H](CC(C)C)C(=O)N[C@@H](Cc2ccc(C(=O)NC)c(OC)c2)C(=O)N(C)[C@@H](CC(C)C)C(=O)N(C)[C@@H](Cc2ccccc2)C(=O)N[C@@H](CC(C)C)C(=O)N(C)[C@@H](CC(C)C)C(=O)N1C` [AP31] ([NMeL][Phe(3-OMe,4-CONHMe)][NMeL][NMeF]L[NMeL][NMeI]T[Sar][NMeAbu]D-Piperidide; lactam N-11) yielded a Papp of 0.52 ×10⁻⁶ cm/s.

`CC[C@H](C)[C@H]1C(=O)N[C@@H]([C@@H](C)O)C(=O)N(C)CC(=O)N(C)[C@@H](CC)C(=O)N[C@H](C(=O)N2CCCCC2)CC(=O)N(C)[C@@H](CC(C)C)C(=O)N[C@@H](Cc2ccc(C(=O)NS(C)(=O)=O)c(OC)c2)C(=O)N(C)[C@@H](CC(C)C)C(=O)N(C)[C@@H](Cc2ccccc2)C(=O)N[C@@H](CC(C)C)C(=O)N(C)[C@@H](CC(C)C)C(=O)N1C` [AP139] ([NMeL][Phe(3-OMe,4-CONHMs)][NMeL][NMeF]L[NMeL][NMeI]T[Sar][NMeAbu]D-Piperidide; lactam N-11) had a Papp of under 0.25 ×10⁻⁶ cm/s.

Molecule `CC[C@H](C)[C@@H]1NC(=O)[C@H](CC(C)C)N(C)C(=O)[C@H](COC(C)(C)C)NC(=O)[C@H](Cc2ccccc2)N(C)C(=O)[C@H](Cc2ccccc2)N(C)C(=O)[C@H](COC[C@@H](C)O)NC(=O)[C@H](CC(C)C)N(C)C(=O)CCCN(C)C(=O)C[C@@H](C(=O)N2CCCCC2)NC(=O)[C@H](CC(C)C)N(C)C(=O)[C@H](CC(C)C)N(C)C1=O` [AP84] ([NMeGABA][NMeL]S(Propyl(2R-OH))[NMeF][NMeF]S(tBu)[NMeL]I[NMeL][NMeL]D-Piperidide; lactam N-11) yielded a Papp of 0.58 ×10⁻⁶ cm/s.

For the molecule `CC[C@H](C)[C@@H]1NC(=O)[C@H](CC(C)C)N(C)C(=O)CCCN(C)C(=O)C[C@@H](C(=O)N2CCCCC2)NC(=O)[C@H](CC(C)C)N(C)C(=O)[C@H](CC(C)C)N(C)C(=O)[C@H]([C@@H](C)O)NC(=O)[C@H](CC(C)C)N(C)C(=O)C(COCc2noc(=O)[nH]2)NC(=O)[C@H](CC(C)C)N(C)C(=O)[C@H](Cc2cccc(Cl)c2)N(C)C1=O` (stereo partly drawn) [AP46] ([NMeGABA][NMeL]I[NMePhe(3-Cl)][NMeL][ξS](CH2(1,2,4-oxadiazolon-3-yl))[NMeL]T[NMeL][NMeL]D-Piperidide; lactam N-11), the Papp turned out to be 0.22 ×10⁻⁶ cm/s.

For the molecule `CCCCN1CC(=O)N(C)[C@@H](CC(C)C)C(=O)N[C@H](C(=O)N2CCCCC2)CC(=O)N(C)[C@@H](C(C)C)C(=O)N[C@@H](CC(C)C)C(=O)N(C)[C@@H](CC(C)C)C(=O)N(C)[C@@H](Cc2ccccc2)C(=O)N[C@@H](COCC[C@@H](C)O)C(=O)N(C)[C@@H](Cc2ccccc2)C(=O)N(C)[C@@H](C(C)C)C(=O)N[C@@H]([C@@H](C)O)C1=O` [AP116] ([NMeV]L[NMeL][NMeF]S(Butyl(3R-OH))[NMeF][NMeV]T[NBuGly][NMeL]D-Piperidide; lactam N-11), the apparent permeability coefficient (Papp) is 0.89 ×10⁻⁶ cm/s.

For `CCCCN1CC(=O)N(C)[C@@H](Cc2cccc(Cl)c2)C(=O)N(C)[C@@H](CC(C)C)C(=O)N[C@@H]([C@@H](C)CC)C(=O)N(C)[C@@H](CC(C)C)C(=O)N[C@H](C(=O)N2CCCCC2)CC(=O)N(C)CC(=O)N(C)[C@@H](CC(C)C)C(=O)NC(COCc2noc(=O)[nH]2)C(=O)N(C)[C@@H](CC(C)C)C(=O)N[C@@H]([C@@H](C)O)C1=O` (stereo partly drawn) [AP49] ([Sar][NMeL][ξS](CH2(1,2,4-oxadiazolon-3-yl))[NMeL]T[NBuGly][NMePhe(3-Cl)][NMeL]I[NMeL]D-Piperidide; lactam N-11), the apparent permeability (Papp) came to 0.33 ×10⁻⁶ cm/s.

Still in this data set, the particulars now being: human, Caco-2, Caco-2 (membrane permeability), Table 6, cyclic peptides containing Ser(1-CF3-EtOH) (C) or Hnl(7-F3-6-OH) (D).
`CC[C@H](C)[C@@H]1NC(=O)[C@H](CC(C)C)N(C)C(=O)[C@H](COC(C)(C)C)NC(=O)[C@H](Cc2ccccc2)N(C)C(=O)[C@H](Cc2ccccc2)N(C)C(=O)[C@H](COCC(O)C(F)(F)F)NC(=O)[C@H](CC)N(C)C(=O)CCCN(C)C(=O)C[C@@H](C(=O)N2CCCCC2)NC(=O)[C@H](CC(C)C)N(C)C(=O)[C@H](CC(C)C)N(C)C1=O` (stereo partly drawn) [Compound C13] ([NMeGABA][NMeAbu]S(CH2CH(OH)CF3)[NMeF][NMeF]S(tBu)[NMeL]I[NMeL][NMeL]D-Piperidide; lactam N-11) gave a Papp of 0.26 ×10⁻⁶ cm/s.

The data set is the same for the next values; noted with them: human, Caco-2, Caco-2 (membrane permeability), Table 10, cyclic peptides containing Ser(S-4-F2-Pyrro-Me) (G) or Nva(2-R-4-F2-Pyrro) (H).
`CCCCN1CC(=O)N(C)[C@@H](CC(C)C)C(=O)N[C@@H](COC[C@@H]2CC(F)(F)CN2)C(=O)N(C)[C@@H](CC(C)C)C(=O)N(C)[C@@H](CC(C)C)C(=O)N[C@H](C(=O)N2CCCCC2)CC(=O)N[C@H](C(C)C)C(=O)N(C)[C@@H](Cc2ccccc2)C(=O)N[C@@H](CC(C)C)C(=O)N(C)[C@@H](CC)C(=O)N[C@@H]([C@@H](C)O)C1=O` [Compound G01] ([dV][NMeF]L[NMeAbu]T[NBuGly][NMeL]S(Pro(4,4-F2)ψ(CH2))[NMeL][NMeL]D-Piperidide; lactam N-11) had an apparent permeability (Papp) of 0.53 ×10⁻⁶ cm/s.

Regarding `CCCCN1CC(=O)N(C)[C@@H](Cc2ccccc2)C(=O)N(C)[C@@H](CC(C)C)C(=O)N[C@@H](COC[C@@H]2CC(F)(F)CN2)C(=O)N(C)[C@@H](CC(C)C)C(=O)N[C@H](C(=O)N2CCCCC2)CC(=O)N(C)CC(=O)N(C)[C@@H](CC(C)C)C(=O)NC([C@@H](C)CC)C(=O)N(C)[C@@H](CC(C)C)C(=O)N[C@@H]([C@@H](C)O)C1=O` (stereo partly drawn) [Compound G07] ([Sar][NMeL][ξIle][NMeL]T[NBuGly][NMeF][NMeL]S(Pro(4,4-F2)ψ(CH2))[NMeL]D-Piperidide; lactam N-11), the apparent permeability (Papp) came to 0.57 ×10⁻⁶ cm/s.

`CCCCN1CC(=O)N(C)[C@@H](Cc2ccccc2)C(=O)N(C)[C@@H](CC(C)C)C(=O)N[C@@H](CC(C)C)C(=O)N(C)[C@@H](CC(C)C)C(=O)N[C@H](C(=O)N2CCCCC2)CC(=O)N(C)CC(=O)N(C)[C@@H](C)C(=O)N[C@@H](C(C)C)C(=O)N(C)[C@@H](CC)C(=O)N[C@@H](CCC[C@@H]2CC(F)(F)CN2)C1=O` [Compound H11] ([Sar][NMeA]V[NMeAbu][X5][NBuGly][NMeF][NMeL]L[NMeL]D-Piperidide; lactam N-11) came in with an apparent permeability coefficient (Papp) of 2 ×10⁻⁶ cm/s.

Molecule `CC[C@H]1C(=O)N(C)[C@@H](Cc2ccccc2)C(=O)N[C@@H](CC(C)C)C(=O)N(C)[C@@H](CC(C)C)C(=O)N(C)[C@@H](CC(C)C)C(=O)N[C@@H](COC[C@@H]2CC(F)(F)CN2)C(=O)N(C)CC(=O)N(C)[C@@H](CC(C)C)C(=O)N[C@H](C(=O)N2CCCCC2)CC(=O)N(C)[C@@H](C)C(=O)N[C@@H](CC(C)C)C(=O)N1C` [Compound G10] ([NMeA]L[NMeAbu][NMeF]L[NMeL][NMeL]S(Pro(4,4-F2)ψ(CH2))[Sar][NMeL]D-Piperidide; lactam N-11) had a Papp of 1.1 ×10⁻⁶ cm/s.

As to `CCCCN1CC(=O)N(C)[C@@H](Cc2ccccc2)C(=O)N(C)[C@@H](CC(C)C)C(=O)N[C@@H](C(C)C)C(=O)N(C)[C@@H](CC(C)C)C(=O)N[C@H](C(=O)N2CCCCC2)CC(=O)N(C)CC(=O)N(C)[C@@H](C(C)C)C(=O)N[C@@H](CCC[C@@H]2CC(F)(F)CN2)C(=O)N(C)[C@@H](CC(C)C)C(=O)N[C@@H]([C@@H](C)O)C1=O` [Compound H06] ([Sar][NMeV][X5][NMeL]T[NBuGly][NMeF][NMeL]V[NMeL]D-Piperidide; lactam N-11), the Papp is 0.27 ×10⁻⁶ cm/s.
